This is an account of results in patent US8530516B2, “Promoting cycling of ApoE4 isoform” (Board of Regents, The University of Texas System, priority 2009, dated 2013).

One experiment concerns the target T1, NHE-2 isoform (Homo sapiens, UniProt Q9UBY0).
T1 sequence (Q9UBY0 1-812): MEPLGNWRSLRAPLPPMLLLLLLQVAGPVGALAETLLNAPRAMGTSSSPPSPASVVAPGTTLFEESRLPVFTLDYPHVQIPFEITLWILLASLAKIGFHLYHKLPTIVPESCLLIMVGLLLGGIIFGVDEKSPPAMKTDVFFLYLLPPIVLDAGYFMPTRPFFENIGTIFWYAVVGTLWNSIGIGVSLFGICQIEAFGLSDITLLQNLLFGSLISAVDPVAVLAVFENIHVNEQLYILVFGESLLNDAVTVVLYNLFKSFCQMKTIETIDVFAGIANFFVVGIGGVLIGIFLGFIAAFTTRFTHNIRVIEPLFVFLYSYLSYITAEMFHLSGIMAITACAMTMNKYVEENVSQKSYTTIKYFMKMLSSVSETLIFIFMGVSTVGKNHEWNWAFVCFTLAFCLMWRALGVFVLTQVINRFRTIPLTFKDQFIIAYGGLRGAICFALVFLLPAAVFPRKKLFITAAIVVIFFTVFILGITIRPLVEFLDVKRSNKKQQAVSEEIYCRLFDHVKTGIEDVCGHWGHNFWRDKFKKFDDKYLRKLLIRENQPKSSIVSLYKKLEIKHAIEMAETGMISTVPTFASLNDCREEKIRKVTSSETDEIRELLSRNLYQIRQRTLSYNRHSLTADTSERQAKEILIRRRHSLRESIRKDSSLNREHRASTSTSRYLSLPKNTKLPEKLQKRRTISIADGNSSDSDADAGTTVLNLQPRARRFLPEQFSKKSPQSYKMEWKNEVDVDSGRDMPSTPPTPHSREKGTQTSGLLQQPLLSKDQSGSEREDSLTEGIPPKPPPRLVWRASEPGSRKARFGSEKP
The conditions noted are these: cited from earlier work.

Another experiment addresses T2, NHE5 (Homo sapiens, UniProt Q14940).
T2 sequence (Q14940 1-896): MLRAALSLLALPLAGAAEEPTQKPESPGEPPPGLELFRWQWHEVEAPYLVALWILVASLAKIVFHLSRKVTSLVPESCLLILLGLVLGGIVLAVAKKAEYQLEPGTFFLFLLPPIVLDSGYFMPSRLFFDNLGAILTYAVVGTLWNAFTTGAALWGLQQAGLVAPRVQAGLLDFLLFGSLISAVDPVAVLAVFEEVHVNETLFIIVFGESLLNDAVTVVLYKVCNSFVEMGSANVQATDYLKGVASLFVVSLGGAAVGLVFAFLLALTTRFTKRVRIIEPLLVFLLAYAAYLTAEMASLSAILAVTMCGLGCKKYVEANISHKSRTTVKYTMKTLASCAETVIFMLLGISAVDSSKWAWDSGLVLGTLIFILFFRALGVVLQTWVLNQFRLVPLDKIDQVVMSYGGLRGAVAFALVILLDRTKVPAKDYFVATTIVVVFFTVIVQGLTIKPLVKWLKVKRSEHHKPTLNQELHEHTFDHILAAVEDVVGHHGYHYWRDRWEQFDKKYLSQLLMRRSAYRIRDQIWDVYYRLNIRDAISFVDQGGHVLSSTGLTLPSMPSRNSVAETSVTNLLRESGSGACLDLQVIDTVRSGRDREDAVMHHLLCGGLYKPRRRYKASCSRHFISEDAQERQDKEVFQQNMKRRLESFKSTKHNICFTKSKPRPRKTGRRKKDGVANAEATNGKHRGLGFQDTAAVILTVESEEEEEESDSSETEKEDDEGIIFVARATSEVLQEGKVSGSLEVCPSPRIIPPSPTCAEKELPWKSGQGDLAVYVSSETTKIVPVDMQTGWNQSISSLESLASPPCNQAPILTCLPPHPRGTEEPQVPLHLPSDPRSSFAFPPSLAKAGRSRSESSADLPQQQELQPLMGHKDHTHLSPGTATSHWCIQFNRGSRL
The conditions noted are these: cited from earlier work.

The target of the next experiment is NHE-3 (Homo sapiens, UniProt P48764). As to conditions: cited from earlier work.
Sequence of NHE-3 (P48764 26-834, species assumed): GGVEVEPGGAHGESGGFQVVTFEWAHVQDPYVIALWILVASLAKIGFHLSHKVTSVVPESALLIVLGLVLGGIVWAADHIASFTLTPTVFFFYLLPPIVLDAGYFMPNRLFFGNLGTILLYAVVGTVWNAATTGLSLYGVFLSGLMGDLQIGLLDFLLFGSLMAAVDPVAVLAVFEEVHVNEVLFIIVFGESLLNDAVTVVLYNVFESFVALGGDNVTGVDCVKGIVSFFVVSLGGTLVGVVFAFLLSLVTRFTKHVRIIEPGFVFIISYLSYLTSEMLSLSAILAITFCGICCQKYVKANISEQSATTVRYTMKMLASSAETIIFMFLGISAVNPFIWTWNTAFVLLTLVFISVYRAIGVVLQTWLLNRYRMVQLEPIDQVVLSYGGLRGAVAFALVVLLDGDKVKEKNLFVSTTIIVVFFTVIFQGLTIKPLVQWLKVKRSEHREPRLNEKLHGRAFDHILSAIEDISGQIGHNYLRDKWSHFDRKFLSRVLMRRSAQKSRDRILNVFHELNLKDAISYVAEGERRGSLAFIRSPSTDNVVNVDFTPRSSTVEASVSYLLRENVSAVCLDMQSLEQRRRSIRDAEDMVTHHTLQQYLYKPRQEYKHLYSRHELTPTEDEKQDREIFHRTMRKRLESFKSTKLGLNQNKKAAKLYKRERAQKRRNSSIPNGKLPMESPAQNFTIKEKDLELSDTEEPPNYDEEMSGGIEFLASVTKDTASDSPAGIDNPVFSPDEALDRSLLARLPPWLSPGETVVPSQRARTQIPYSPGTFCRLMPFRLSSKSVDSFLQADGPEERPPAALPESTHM
A further experiment has as its system ApoE receptors (Apoer2). The experiment in a line: recycling of ApoE receptors in the presence of ApoE4 / ApoE3. The class given is cell-based.

As to `CS(=O)(=O)O.CS(=O)(=O)c1cc(C(=O)N=C(N)N)ccc1N1CCCCC1` [HOE 694], the NHE-2 isoform selectivity entry on NHE-2 isoform was “relatively selective”. For the molecule `CN1Cc2c(Cl)cc(Cl)cc2C(c2ccc(S(=O)(=O)N=C(N)N)cc2)C1` (stereo not shown) [N-diaminomethylene-4-(6,8-dichloro-2-methyl-1,2,3,4-tetrahydroisoquinolin-4-yl)benzenesulfonamide], on NHE5, the NHE5 selectivity entry is given as “NHE5 selective”. `CC(=Cc1cc(C)ccc1C=C(C)C(=O)NC(=N)N)C(=O)N=C(C)C.Cl.Cl` [S3226, 3-[2-(3-guanidino-2-methyl-3-oxo-propenyl)-5-methyl-phenyl]-N-isopropylidene-2-methyl-acrylamide dihydro-chloride]: the “NHE-3 potency and specificity” value on NHE-3 is “relatively potent and specific”. On to `COc1ccc2c3c([nH]c2c1)C(C)=NCC3` [hamaline], for which the NHE5 selectivity result at NHE5 is given as “NHE5 selective”. As to `CC(C)NCC(O)c1ccc(O)c(O)c1` (stereo not shown) [isoproterenol], the ApoE receptor recycling entry in the experiment on ApoE receptors (Apoer2) (activation of beta-adrenergic receptors, in the presence or absence of IBMX) is reported as “restores normal ApoE receptor recycling”. On to `COc1ccc(C2CNC(=O)C2)cc1OC1CCCC1` (stereo not shown) [rolipram], for which the “effect on altering the recycling properties of Apoer2” value in the experiment on ApoE receptors (Apoer2) (in the presence of ApoE3) was “negligible effect”. In addition, in the experiment on ApoE receptors (Apoer2) (in the presence of ApoE4), the “recycling deficit induced by ApoE4” value is reported as “completely normalizes”.
